The results in this text go back to patent publication US20070010401A1, “Synergistic combination of a glyphosate herbicide and a triazole fungicide” (Cheminova A/S, priority 2005, published 2007).

Assay [1] concerns Phakopsora pachyrhizi. Nature of the assay: Protective treatment of glyphosate resistant soybean plants three days prior to inoculation with soybean rust. The format is in vivo. The settings on record: treated 3 days prior to inoculation, assessed four weeks after inoculation. From the text: (§1) In the Colby method, also referred to as the Limpels method, the action to be expected (E) for a given active ingredient combination obeys the so-called Colby formula. According to Colby, the expected (additive) action of active ingredients I+II using p+q ppm of active ingredient is: [formula] where ppm equals the milligrams of active ingredient (=a.i.) per liter of spray mixture; X equals the % action by component (a) using p ppm of active ingredient; Y equals the % action by component (b) using q ppm of active ingredient. If the action actually observed (O) is greater than the expected action (E), then the action of the combination is superadditive, i.e. there is a synergistic effect. For a more detailed description of the Colby formula, see Colby, S. R. “Calculating synergistic and antagonistic responses of herbicide combination,” Weeds, Vol. 15, pages 20-22; (1967); see also Limpel et al., Proc. NEWCC 16: 48-53 (1962), both of which are herein incorporated by reference in their entirety.
Protective Treatment. […] Four weeks after inoculation, disease incidence and severity is determined on the first trifoliate. […]

Assay [2] deals with Phakopsora pachyrhizi. Nature of the assay: Curative treatment of glyphosate resistant soybean plants three days after inoculation with soybean rust. The format is in vivo. The following applies: treated 3 days after inoculation, assessed four weeks after inoculation.
Text: as §1
Curative treatment. […] Four weeks after inoculation, disease incidence and severity is determined on the first trifoliate. […]

For the compound `OC(Cn1cncn1)(c1ccc(F)cc1)c1ccccc1F` (stereo not shown) [Flutriafol, flutriafol], the “Observed control (O) %” value in the assay on Phakopsora pachyrhizi [1] (30 g AI/hectare) was determined as 11%; with Phakopsora pachyrhizi [2] (30 g AI/hectare), 39%.
Consider `O=C(O)CNCP(=O)(O)O` [Glyphosate (acid), N-(phosphonomethyl)glycine], for which the figures for the “Observed control (O) %” value in the assay with Phakopsora pachyrhizi [1] (100 g AI/hectare) and in the assay with Phakopsora pachyrhizi [2] (100 g AI/hectare) were 82% and 27%, respectively.
